Measured values: BindingDB's records for doi:10.7270/Q21Z42V4 (Burnham Center For Chemical Genomics, 2010)

target: Intestinal-type alkaline phosphatase (Mus musculus, UniProt P24822); experiment: PubChem AID 488875
Sequence (P24822 whole entry, looked up): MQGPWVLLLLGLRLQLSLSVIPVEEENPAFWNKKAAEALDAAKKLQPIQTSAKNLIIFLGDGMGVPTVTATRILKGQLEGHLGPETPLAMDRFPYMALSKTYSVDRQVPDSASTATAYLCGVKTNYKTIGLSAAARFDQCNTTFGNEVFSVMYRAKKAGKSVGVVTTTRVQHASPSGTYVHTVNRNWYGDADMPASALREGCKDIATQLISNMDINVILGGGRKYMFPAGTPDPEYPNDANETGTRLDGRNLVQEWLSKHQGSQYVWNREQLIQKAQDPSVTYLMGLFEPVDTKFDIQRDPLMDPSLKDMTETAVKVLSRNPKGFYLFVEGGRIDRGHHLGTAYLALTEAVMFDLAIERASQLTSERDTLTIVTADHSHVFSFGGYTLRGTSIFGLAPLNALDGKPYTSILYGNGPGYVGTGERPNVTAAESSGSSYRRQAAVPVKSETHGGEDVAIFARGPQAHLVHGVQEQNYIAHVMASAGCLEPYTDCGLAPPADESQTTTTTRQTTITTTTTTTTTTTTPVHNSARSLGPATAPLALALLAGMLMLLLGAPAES

EC50	SMILES
> 100 µM	C=c1[nH]n(-c2nc3ccccc3[nH]2)c(=O)c1=CN(C)C [(4E)-2-(1H-benzimidazol-2-yl)-4-(dimethylaminomethylidene)-5-methyl-pyrazol-3-one]
> 100 µM	CCc1ccc(CN=Nc2ncnc3nc[nH]c23)cc1 [MLS000419199]
> 100 µM	Cn1c(C(C#N)C(=O)c2ccc(Br)s2)nc2ccccc21 (centres undefined) [MLS001167394]
> 100 µM	COc1cccc(C=NNC(=O)c2[nH][nH]c(=O)c2C)c1O [N'-[(E)-(5-methoxy-6-oxidanylidene-cyclohexa-2,4-dien-1-ylidene)methyl]-4-methyl-5-oxidanylidene-1,4-dihydropyrazole-3-carbohydrazide]
